In patent US20240316023A1, “BENEDIN, PIPERIDINE, 2-BENZHYDRYL-3-HYDROXY-N-METHYL-, HYDROCHLORIDE AND DERIVATIVES THEREOF FOR USE IN TREATING KLEINE-LEVIN SYNDROME” (priority 2021, published 2024):

Experiments:
[1] = target: RXFP4 (h) (agonist radioligand) (Homo sapiens, UniProt Q8TDU9); experiment: GPCR Biosensor cAMP Hunter assay, RXFP4; type: cell-based
Method: Benedin is found to weakly bind with RXFP4 and RXFP3 receptors (Study FR095-0024749-Q Eurofins/leadHunter Jun. 25, 2021; unpublished data) (Table 2).
In these assays' compounds were tested in agonist and antagonist mode with the GPCR Biosensor Assays and match to this design:
1. cAMP Hunter cell lines were expanded from freezer stocks according to standard procedures.
2. Cells were seeded in a total volume of 20 μL into white walled, 384-well microplates and incubated at 37° C. for the appropriate time prior to testing.
3. cAMP modulation was determined using the DiscoverX HitHunter CAMP XS+assay.
1. For agonist determination, cells were incubated with sample in the presence of EC80 forskolin to induce response.
2. Media was aspirated from cells and replaced with 15 μL 2:1 HBSS/10 mM Hepes: CAMP XS+Ab reagent. […]
2. Microplates were read following signal generation with a PerkinElmer Envision™ instrument for chemiluminescent signal detection.
5. For Gi agonist mode assays, percentage activity is calculated using the following formula: % Activity=100%×(1−(mean RLU of test sample-mean RLU of MAX control)/(mean RLU of vehicle control−mean RLU of MAX control)).
8. For Gi antagonist or negative allosteric mode assays, percentage inhibition is calculated using the following formula: % Inhibition=100%×(mean RLU of test sample−mean RLU of EC80 control)/(mean RLU of forskolin positive control−mean RLU of […]

Mice, C57BL/6J, male = experiment: Novel object recognition (NOR) test, long-term memory; type: in vivo; conditions: for DI Discrimination Index = 100 × (N − F)/(N + F) / N − F Exploration time novel − familiar object: choice trial 72 h post treatment, mean, N = 16; for recognition of the familiar object, i.e. memory: 3-days interval
Method: Long-term episodic memory was tested in the NOR test, using a 3-days interval between the acquisition session (called sample trial) and the retention session (called choice trial). This method allows to detect an improvement of memory in the natural forgetting condition:
The test was carried out in circular boxes (30 cm diameter, 40 cm high). The objects to be discriminated (L≈1≈h≈3-4 cm) differed in both color and shape and were referred as yellow duck and blue lego. They were fixed with a magnet to the floor of the boxes at 5 cm of the wall, 20 cm distant. Apparently, they have no natural significance for mice and they have never been associated with a reinforcement. In order to rule out the possibility of scent traces left on the objects and therefore the dependency of the recognition capacity of mice on the olfactory cue, the objects and the ground of the box were washed with an odorless disinfectant (Sanicid® diluted in water) and dried between each trial. A camcorder was fixed to the ceiling above the box to record the animals' activity. The experiment was analyzed blindly at a later time.
On the week before the test, animals were handled by the experimenter in charge of the experiment in order to be not stressed at the time of testing. For this purpose, the experimenter placed a small amount of litter, and then the mouse on its hand. […] The NOR test was completed over five days (see FIG. 1): • Day 1: Habituation trial. Animals were individually placed for a 15-min free exploration session in empty open boxes. • Day 2. Treatment administration and sample trial. […] They were individually placed 30 min after in the apparatus for a 6-min session with two identical objects (Duck, 50% of animals or Lego, 50% of animals). • […]. […]. The mice were individually placed for a 6-min session in the apparatus with two objects (Duck and Lego), one of the objects presented in sample trials (termed as familiar objects) and a novel object (Lego, 50% of animals or Duck, 50% of animals).
The sample and choice trials were recorded with the camera located above the apparatus. The time spent by mice in exploring the objects was measured during the sample trial and the choice trial.
Exploration of an object was defined as follows: directing the nose to the object at a distance≤2 cm and/or touching it with the nose or forelimbs: turning around or biting the object, or sitting on the object were not considered as exploratory behavior.
Data recorded: • L=exploration time of the left object in the sample trial. • R=exploration time of the right object in the sample trial. • N=exploration time of the new object in the choice trial. • F=exploration time of the familiar object in the choice trial. Object recognition task indices include the following parameters: • Exploration indices: • ST=L+R=exploration time (left object+right object) in the sample trial. • CT=N+F=exploration time (new object+familiar object) in the choice trial. • Two memory indices: • N−F=difference of exploration time between the new object and the familiar object in the choice trial.
Statistical analyses: • Read-outs: DI, N−F, ST, CT, N, F • Unpaired Student's t test: Donep 2 group vs. Control group. • One-way ANOVA, Dunnett test: • Benedin groups vs. Control group. • Benedin groups vs. Donep 2 group. • Read-outs: DI and N−F, for all groups, paired Student's t test, difference vs. 0. • Body weight: one-way ANOVA.

RXFP4 (h) (agonist radioligand), sequence (Q8TDU9 whole entry): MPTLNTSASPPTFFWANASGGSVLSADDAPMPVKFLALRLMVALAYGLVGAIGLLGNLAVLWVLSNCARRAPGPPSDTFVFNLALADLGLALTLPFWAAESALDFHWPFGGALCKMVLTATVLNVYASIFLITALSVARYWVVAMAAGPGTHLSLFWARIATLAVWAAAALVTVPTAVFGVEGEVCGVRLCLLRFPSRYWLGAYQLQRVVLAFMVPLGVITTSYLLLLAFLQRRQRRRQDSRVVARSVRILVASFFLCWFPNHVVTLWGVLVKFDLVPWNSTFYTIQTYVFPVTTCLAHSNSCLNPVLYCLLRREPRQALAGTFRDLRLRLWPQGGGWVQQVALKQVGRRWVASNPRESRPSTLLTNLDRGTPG

CN1CCCC(O)C1C(c1ccccc1)c1ccccc1 (centres unmarked) [Benedin, 2-benzhydryl-3-hydroxy-N-methyl-piperidine]
% Inhibition at 10^−5M Benedin [1]: weakly bind | inhibition at 10 µM ([1]; 10^−5 M, read-out: % Inhibition at 10^−5M Benedin): 26.3% | DI Discrimination Index = 100 × (N − F)/(N + F) (Mice, C57BL/6J, male; Benedin 0.1 mg/kg i.p. 30 min before sample trial): not significantly different from 0 | DI Discrimination Index = 100 × (N − F)/(N + F) (Mice, C57BL/6J, male; Benedin 0.1 mg/kg i.p. 30 min before sample trial, listed as NLS-11): 12.0 | recognition of the familiar object, i.e. memory (Mice, C57BL/6J, male; Benedin 0.1 mg/kg i.p.): not significant | N − F Exploration time novel − familiar object (Mice, C57BL/6J, male; Benedin 0.1 mg/kg i.p.): not significantly different from 0 | N − F Exploration time novel − familiar object (Mice, C57BL/6J, male; Benedin 0.1 mg/kg i.p., listed as NLS-11): 3.4 s | DI Discrimination Index = 100 × (N − F)/(N + F) (Mice, C57BL/6J, male; Benedin 0.5 mg/kg i.p. 30 min before sample trial): significantly higher than 0 | DI Discrimination Index = 100 × (N − F)/(N + F) (Mice, C57BL/6J, male; Benedin 0.5 mg/kg i.p. 30 min before sample trial, listed as NLS-11): 23.5 | recognition of the familiar object, i.e. memory (Mice, C57BL/6J, male; Benedin 0.5 mg/kg i.p.): significant | N − F Exploration time novel − familiar object (Mice, C57BL/6J, male; Benedin 0.5 mg/kg i.p.): significantly higher than 0 | N − F Exploration time novel − familiar object (Mice, C57BL/6J, male; Benedin 0.5 mg/kg i.p., listed as NLS-11): 6.2 s | DI Discrimination Index = 100 × (N − F)/(N + F) (Mice, C57BL/6J, male; Benedin 1 mg/kg i.p. 30 min before sample trial): not significantly different from 0 | DI Discrimination Index = 100 × (N − F)/(N + F) (Mice, C57BL/6J, male; Benedin 1 mg/kg i.p. 30 min before sample trial, listed as NLS-11): 13.0 | recognition of the familiar object, i.e. memory (Mice, C57BL/6J, male; Benedin 1 mg/kg i.p.): not significant | N − F Exploration time novel − familiar object (Mice, C57BL/6J, male; Benedin 1 mg/kg i.p.): not significantly different from 0 | N − F Exploration time novel − familiar object (Mice, C57BL/6J, male; Benedin 1 mg/kg i.p., listed as NLS-11): 4.0 s
